Holding throughout (assay type): biochemical
Assay [1] deals with T1, ENPP1 (Homo sapiens, UniProt P22413).
T1 sequence (P22413 1-925): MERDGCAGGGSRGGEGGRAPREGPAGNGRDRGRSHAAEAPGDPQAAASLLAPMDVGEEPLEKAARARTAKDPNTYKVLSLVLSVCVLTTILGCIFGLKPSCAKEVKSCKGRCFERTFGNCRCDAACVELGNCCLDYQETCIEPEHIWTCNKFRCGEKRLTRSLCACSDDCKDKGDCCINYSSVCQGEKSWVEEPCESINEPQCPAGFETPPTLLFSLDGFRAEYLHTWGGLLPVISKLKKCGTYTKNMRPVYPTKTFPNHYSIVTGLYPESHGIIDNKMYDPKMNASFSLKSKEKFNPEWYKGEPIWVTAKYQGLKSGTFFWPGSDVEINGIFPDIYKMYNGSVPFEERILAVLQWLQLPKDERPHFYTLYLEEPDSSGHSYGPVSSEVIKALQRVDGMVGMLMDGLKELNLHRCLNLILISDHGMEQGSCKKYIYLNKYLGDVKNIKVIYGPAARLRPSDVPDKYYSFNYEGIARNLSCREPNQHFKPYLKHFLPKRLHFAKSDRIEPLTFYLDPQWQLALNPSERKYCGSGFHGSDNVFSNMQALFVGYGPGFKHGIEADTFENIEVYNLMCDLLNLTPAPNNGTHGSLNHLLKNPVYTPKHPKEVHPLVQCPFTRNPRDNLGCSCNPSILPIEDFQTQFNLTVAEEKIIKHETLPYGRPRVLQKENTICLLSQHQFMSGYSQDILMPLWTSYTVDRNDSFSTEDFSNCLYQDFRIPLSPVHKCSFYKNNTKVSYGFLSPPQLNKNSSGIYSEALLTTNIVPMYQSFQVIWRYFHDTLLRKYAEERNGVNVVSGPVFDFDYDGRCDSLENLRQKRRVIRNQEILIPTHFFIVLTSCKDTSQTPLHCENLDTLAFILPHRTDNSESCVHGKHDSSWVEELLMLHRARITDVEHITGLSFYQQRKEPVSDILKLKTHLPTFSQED
Description: Indirect quantitation of 2',3'-cGAMP hydrolysis (AMP-Glo Assay kit).

For assay [2], the target named is T1, ENPP1. Description: ENPP1 enzyme assay with cGAMP substrate (AMP-Glo). Further details: purchased R&D Systems. As to conditions: for inhibition at 10 µM: 10 µM compound; for inhibition at 1 µM: read-out: cGAMP: % Inhibition at 1 µM. The text has this: Example B1: ENPP1 Enzyme Assay With cGAMP Substrate
Ectonucleotide pyrophosphatase/phosphodiesterase 1 (ENPP-1) is a transmembrane glycoprotein that hydrolyzes nucleotides and nucleotide derivatives with the formation of nucleoside-5’-monophosphates. […] The 5’-AMP formed from the reaction is detected using the AMP-Glo® Kit (Promega). The assay kit contains two reagents. The first reagent terminates the enzymatic reaction, removes ATP (using adenylyl cyclase), and converts 5’-AMP produced into ADP (using polyphosphate: AMP phosphotransferase). The second reagent converts ADP to ATP (using adenylate kinase) and generates light from ATP using the luciferin/luciferase reaction.
Different concentrations of ENPP1 inhibitors are pre-incubated with 5 ng/well of human ENPP-1 enzyme (R&D Systems) for 15 minutes at 37° C. The reaction is initiated by adding 20 µM 2’3’-cGAMP and incubating for 30 minutes at 37° C. The final assay reaction mixture contains a buffer of 50 mM Tris pH 8.0, 250 mM NaCl, 0.5 mM CaCl2, 1 µM ZnCl2 and 1% DMSO. At the end of the incubation, the reaction is stopped by adding 12 µl of AMP-Glo reagent-1 and mixing the reaction uniformly for 5 minutes, followed by incubation at room temperature for one hour. Then 25 µl of AMP Glo reagent-2 is added to the reaction, mixed uniformly with a pipette, and incubated at room temperature for one hour to convert the ADP formed from reagent-1 to ATP and light. The generated light is measured in a Perkin Elmer Victor® instrument.
The IC50 values for percent inhibition versus compound concentration are determined by fitting the inhibition curves using a four-parameter variable slope model in GraphPad Prism® software. Ki values are derived from the IC50 values using the Cheng-Prusoff equation: […]

Assay [3] deals with T1, ENPP1. Put plainly: ENPP1 enzyme assay with TMP-pNP substrate. Further details: purchased R&D Systems. To be noted: for inhibition at 10 µM: read-out: TMP-pNP: % inhibition at 10 uM, 10 uM compound; for Ki: Ki from IC50 by Cheng-Prusoff. On the procedure: Example B2: ENPP1 Enzyme Assay With TMP-pNP Substrate
Ectonucleotide pyrophosphatase/phosphodiesterase 1 (ENPP-1) is a transmembrane glycoprotein that hydrolyzes nucleotides and nucleotide derivatives with the formation of nucleotide-5’-monophosphates. ENPP-1 hydrolyzes thymidine 5’monophosphate p-nitrophenyl ester (TMP-pNP) to nucleotide-5’-monophosphate and p-nitrophenol, which is a chromogenic product. The amount of p-nitrophenol product formed is measured using its absorbance at 405 nm, which is directly proportional to enzyme activity. Different concentrations of inhibitors are pre-incubated with 15 ng/well of human ENPP-1 enzyme (R&D Systems) for 15 minutes at 37° C. The reaction is initiated by adding 200 µM TMP-pNP and incubating for 10 minutes at 37° C. The final assay reaction mixture contains a buffer of 50 mM Tris pH 8.0, 250 mM NaCl, 0.5 mM CaCl2, 1 µM ZnCl2 and 1% DMSO. The amount of product formed is measured directly in a Tecan® spectrophotometer. Maximal activity control samples (containing enzyme, substrate, and buffer in the absence of ENPP1 inhibitors: MAX) and background control samples (containing enzyme, substrate, and buffer plus a fully inhibitory concentration (3 µM) of the reference ENPP1 Inhibitor, Example 333: MIN) are simultaneously evaluated in order to calculate the percent inhibition at each compound concentration as follows:
The IC50 values for percent inhibition versus compound concentration are determined by fitting the inhibition curves (percent inhibition versus inhibitor concentration) using a four-parameter variable slope model in GraphPad Prism® software. Ki values are derived from the IC50 values using the Cheng-Prusoff equation: […]

Assay [4] addresses T1, ENPP1. Description: ENPP1 enzyme assay with AMP-pNP substrate (hydrolysis of ATP analog). The method in brief: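 Human recombinant ENPP1 (60 ng/well) with 300 µM AMP-pNP in 50 mM Tris-HCl pH 8.5, 250 mM NaCl, 0.5 mM CaCl2, 1 µM ZnCl2, 0.1% DMSO, 20 min at 37 °C.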
The target of assay [5] is T1, ENPP1. Put plainly: Substrate selectivity ratio, inhibition of cGAMP hydrolysis versus ATP hydrolysis. To be noted: ratio Ki AMP-pNP / Ki cGAMP. The protocol: The selectivity ratios for inhibition of cGAMP hydrolysis versus ATP hydrolysis were then calculated as follows: […]
Where [6] appears, read: cGAMP substrate, Ki from IC50 by Cheng-Prusoff, read-out: ENPP1 Inhibition -cGAMP: Ki.
The mark [7] stands for this setting: AMP-pNP substrate (ATP analog), Ki from IC50 by Cheng-Prusoff, read-out: ENPP1 Inhibition _AMP-pNP: Ki.
Setting [8] is: cGAMP substrate, Ki from IC50 by Cheng-Prusoff, read-out: cGAMP: Ki.

The source of these data is patent US20230183239A1, “ECTONUCLEOTIDE PYROPHOSPHATASE-PHOSPHODIESTERASE 1 (ENPP-1) INHIBITORS AND USES THEREOF” (AbbVie Inc., priority 2017, published 2023).

One may read the Ki as the dissociation constant of the complex between target and ligand, obtained from inhibition or displacement. In general, inhibition refers to the change of the read-out against control, counted positive when it falls.

Molecules are shown by their SMILES. Where two headings read alike, the source gives them in different places.

In the case of `Cc1cncnc1N1CCC(CCNS(N)(=O)=O)CC1` [Example 17, N-(2-(1-(5-methylpyrimidin-4-yl)piperidin-4-yl)ethyl)sulfamide], the inhibitory constant (Ki) at ENPP1 [1] (setting [6]) is above 1000 nM. Further, the inhibition at 10 µM against ENPP1 [2] (cGAMP substrate) and on ENPP1 [3] was below 25% in each case.

For the compound `COc1cc2ncnc(N3CCc4c(cccc4NS(N)(=O)=O)C3)c2cc1OC` [Example 28, N-(2-(6,7-dimethoxyquinazolin-4-yl)-1,2,3,4-tetrahydroisoquinolin-5-yl)sulfamide], the inhibition constant Ki was 100 to 1000 nM on ENPP1 [4] (setting [7]), below 100 nM on ENPP1 [1] (setting [6]), below 100 nM at ENPP1 [2] (setting [8]) and 100 to 1000 nM on ENPP1 [3]. For the same compound, at ENPP1 [5], the “Substrate Selectivity: Ki_AMP-pNP/Ki_cGAMP” value (from here on “Substrate Selectivity”) is reported as 31.2.

As for `COc1cc2nc(-c3cccnc3)nc(N3CCC(CCNS(N)(=O)=O)CC3)c2cc1OC` [Example 5, N-(2-(1-(6,7-dimethoxy-2-(pyridin-3-yl)quinazolin-4-yl)piperidin-4-yl)ethyl)sulfamide], the Ki is above 1000 nM on ENPP1 [4], 100 to 1000 nM on ENPP1 [1] and 100 to 1000 nM at ENPP1 [2]. Further, on ENPP1 [5], the “Substrate Selectivity” value was above 24. In addition, the inhibition at 1 µM at ENPP1 [2] was 50 to 75%. For the same compound, on ENPP1 [3], the inhibition at 10 µM is 50 to 75%.

For `NS(=O)(=O)NCCC1CCN(c2ccncn2)CC1` [Example 18, N-(2-(1-(pyrimidin-4-yl)piperidin-4-yl)ethyl)sulfamide], the inhibition constant Ki on ENPP1 [1] (setting [6]) is above 1000 nM. Also, on ENPP1 [3], the inhibition at 10 µM is below 25%.

For the compound `COc1cc2nccc(N3CCC(CCNS(N)(=O)=O)CC3)c2cc1OC` [Example 43, N-(2-(1-(6,7-dimethoxyquinolin-4-yl)piperidin-4-yl)ethyl)sulfamide], the Ki on ENPP1 [4] (setting [7]) is 100 to 1000 nM; on ENPP1 [1] (setting [6]), below 100 nM; on ENPP1 [2] (setting [8]), below 100 nM; at ENPP1 [3] it was below 100 nM. Further, the “Substrate Selectivity” value at ENPP1 [5] came to 22.9. At ENPP1 [2] (1 µM compound, cGAMP substrate), the inhibition at 1 µM is above 75%.

In the case of `Cn1cnc2c(N3CCC(CCNS(N)(=O)=O)CC3)ncnc21` [Example 24, N-(2-(1-(9-methyl-9H-purin-6-yl)piperidin-4-yl)ethyl)sulfamide], the inhibitory constant (Ki) at ENPP1 [1] (setting [6]) was above 1000 nM. Also, the inhibition at 10 µM on ENPP1 [3] was below 25%.

As to `NS(=O)(=O)NCCC1CCN(c2ncnc3ccccc23)CC1` [Example 35, N-(2-(1-(quinazolin-4-yl)piperidin-4-yl)ethyl)sulfamide], the Ki on ENPP1 [1] (setting [6]) is 100 to 1000 nM; at ENPP1 [2] (setting [8]), 100 to 1000 nM; at ENPP1 [3], above 1000 nM. This compound came in with an inhibition at 10 µM at ENPP1 [2] (cGAMP substrate) above 75%.

Consider `NS(=O)(=O)NCCC1CCN(c2ncnc3nc[nH]c23)CC1` [Example 23, N-(2-(1-(9H-purin-6-yl)piperidin-4-yl)ethyl)sulfamide], for which the Ki at ENPP1 [1] (setting [6]) is above 1000 nM. Also, the inhibition at 10 µM at ENPP1 [2] (cGAMP substrate) and on ENPP1 [3] was below 25% in each case.

With `COc1cc2nc(N)nc(N3CCC(CCNS(N)(=O)=O)CC3)c2cc1OC` [Example 1, N-(2-(1-(2-amino-6,7-dimethoxyquinazolin-4-yl)piperidin-4-yl)ethyl)sulfamide], the Ki on ENPP1 [4] (setting [7]) was 100 to 1000 nM; at ENPP1 [1] (setting [6]), below 100 nM; at ENPP1 [2] (setting [8]), below 100 nM; at ENPP1 [3], 100 to 1000 nM. The “Substrate Selectivity” value on ENPP1 [5] stood at 41.7.

Turning to `COc1cc2nc(N(C)C)nc(N3CCC(CCNS(N)(=O)=O)CC3)c2cc1OC` [Example 3, N-(2-(1-(2-(dimethylamino)-6,7-dimethoxyquinazolin-4-yl)piperidin-4-yl)ethyl)sulfamide], the Ki at ENPP1 [1] (setting [6]) was in the range of 100 to 1000 nM. In addition, the inhibition at 1 µM at ENPP1 [2] (1 µM compound, cGAMP substrate) lay within 25 to 50%. Besides, the inhibition at 10 µM on ENPP1 [3] is 50 to 75%.

Turning to `COc1cc2nc(-c3ccncc3)nc(N3CCC(CCNS(N)(=O)=O)CC3)c2cc1OC` [Example 6, N-(2-(1-(6,7-dimethoxy-2-(pyridin-4-yl)quinazolin-4-yl)piperidin-4-yl)ethyl)sulfamide], the Ki at ENPP1 [1] (setting [6]) is 100 to 1000 nM; on ENPP1 [2] (setting [8]) it was 100 to 1000 nM; at ENPP1 [3], above 1000 nM. The inhibition at 1 µM at ENPP1 [2] fell in the range of 25 to 50%.

In the case of `COc1cc2ncnc(N3CCC4(CC3)CCN(S(N)(=O)=O)C4)c2cc1OC` [Example 29, 8-(6,7-dimethoxyquinazolin-4-+yl)-2,8-diazaspiro[4.5]decane-2-sulfonamide], the inhibition constant (Ki) on ENPP1 [4] (setting [7]), on ENPP1 [1] (setting [6]), at ENPP1 [2] (setting [8]) and on ENPP1 [3] was below 100 nM throughout. Further, the “Substrate Selectivity” value on ENPP1 [5] is listed as 19.2. The compound also had an inhibition at 10 µM against ENPP1 [2] (cGAMP substrate) above 75%.

`CCN(C)S(=O)(=O)NCCC1CCN(c2ncnc3cc(OC)c(OC)cc23)CC1` [Example 42, 2-(1-(6,7-dimethoxyquinazolin-4-yl)piperidin-4-yl)ethan-1-amino(N-ethyl-N-methyl)sulfonamide]: the inhibitory constant (Ki) at ENPP1 [4] is above 1000 nM; on ENPP1 [1], 100 to 1000 nM; on ENPP1 [2], 100 to 1000 nM; at ENPP1 [3] it was above 1000 nM. Further, on ENPP1 [5], the “Substrate Selectivity” value is above 96.1.

With `COc1cc2ncc(C#N)c(N3CCC(CCNS(N)(=O)=O)CC3)c2cc1OC` [Example 20, N-(2-(1-(3-cyano-6,7-dimethoxyquinolin-4-yl)piperidin-4-yl)ethyl)sulfamide], the Ki at ENPP1 [4] (setting [7]) was 100 to 1000 nM; on ENPP1 [1] (setting [6]), below 100 nM; at ENPP1 [2] (setting [8]) it was below 100 nM; at ENPP1 [3], below 100 nM. The “Substrate Selectivity” value on ENPP1 [5] turned out to be 489. In addition, the inhibition at 1 µM at ENPP1 [2] (1 µM compound, cGAMP substrate) is above 75%.
